The values below come from ChEMBL document CHEMBL1140394, “Inhibition of Src kinase activity by 7-[(2,4-dichloro-5-methoxyphenyl)amino]-2-heteroaryl-thieno[3,2-b]pyridine-6-carbonitriles” (Bioorg Med Chem Lett, 2005).

pIC50: −log10 of the molar value.

Assay [1] addresses Cyclin-dependent kinase 4 (Homo sapiens, UniProt P11802). Nature of the assay: Inhibitory activity against CDK4. The format is functional.
The target in assay [2] is Inhibitor of NF-kappa-B kinase (IKK) (Homo sapiens, UniProt O14920+O15111+Q9Y6K9). Nature of the assay: Inhibitory activity against IKK. The format is functional.
Assay [3] has as its target Serine/threonine-protein kinase RAF and Dual specificity mitogen-activated protein kinase kinase 1 (Raf/MEK) (Homo sapiens, UniProt P04049+Q02750). Nature of the assay: Inhibitory activity against Raf/MEK. It is filed as functional.
In assay [4] the target is T1, Proto-oncogene tyrosine-protein kinase Src (Homo sapiens, UniProt P12931). Nature of the assay: Inhibitory activity against non-receptor tyrosine kinase Src in enzyme assay.
Assay [5] deals with Serine/threonine-protein kinase AKT (Homo sapiens, UniProt P31751+Q9Y243+P31749). Nature of the assay: Inhibitory activity against AKT. It is filed as functional.
Assay [6] has as its target T2, 3-phosphoinositide-dependent protein kinase 1 (Homo sapiens, UniProt O15530).
T2 sequence (O15530 whole entry): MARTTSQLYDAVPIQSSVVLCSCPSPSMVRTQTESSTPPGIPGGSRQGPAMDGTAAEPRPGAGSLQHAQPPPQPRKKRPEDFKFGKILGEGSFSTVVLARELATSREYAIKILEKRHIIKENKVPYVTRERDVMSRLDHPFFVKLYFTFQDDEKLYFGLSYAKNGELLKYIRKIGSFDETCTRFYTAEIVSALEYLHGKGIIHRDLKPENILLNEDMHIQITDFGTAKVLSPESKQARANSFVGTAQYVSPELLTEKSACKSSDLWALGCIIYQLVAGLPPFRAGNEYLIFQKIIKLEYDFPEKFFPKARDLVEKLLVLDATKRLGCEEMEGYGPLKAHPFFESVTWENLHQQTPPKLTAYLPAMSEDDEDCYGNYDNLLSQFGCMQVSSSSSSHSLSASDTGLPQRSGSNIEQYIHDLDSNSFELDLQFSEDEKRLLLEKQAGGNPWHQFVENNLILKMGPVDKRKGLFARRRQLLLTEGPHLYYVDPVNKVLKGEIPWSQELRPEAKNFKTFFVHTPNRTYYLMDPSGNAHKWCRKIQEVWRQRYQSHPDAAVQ
Nature of the assay: Inhibitory activity against PDK1. It is filed as functional.

Assay [7] has as its target T1, Proto-oncogene tyrosine-protein kinase Src. Nature of the assay: Inhibitory activity against non-receptor tyrosine kinase Src in cell assay. The format is functional.

T1 sequence (P12931 2-536 limits assumed): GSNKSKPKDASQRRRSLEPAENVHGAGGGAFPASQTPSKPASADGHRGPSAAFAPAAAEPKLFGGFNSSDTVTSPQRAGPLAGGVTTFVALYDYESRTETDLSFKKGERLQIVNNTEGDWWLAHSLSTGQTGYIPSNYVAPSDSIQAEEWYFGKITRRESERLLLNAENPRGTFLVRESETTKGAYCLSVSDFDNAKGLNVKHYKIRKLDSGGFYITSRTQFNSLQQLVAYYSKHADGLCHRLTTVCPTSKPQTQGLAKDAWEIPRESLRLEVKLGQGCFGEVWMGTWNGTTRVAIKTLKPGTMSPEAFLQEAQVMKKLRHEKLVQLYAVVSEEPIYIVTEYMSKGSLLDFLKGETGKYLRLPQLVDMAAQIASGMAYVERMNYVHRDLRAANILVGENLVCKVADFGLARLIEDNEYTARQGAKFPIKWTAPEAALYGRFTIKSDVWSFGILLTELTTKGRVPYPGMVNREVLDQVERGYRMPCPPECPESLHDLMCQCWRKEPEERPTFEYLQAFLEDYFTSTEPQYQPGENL
Sequence of Cyclin-dependent kinase 4 (P11802 whole entry): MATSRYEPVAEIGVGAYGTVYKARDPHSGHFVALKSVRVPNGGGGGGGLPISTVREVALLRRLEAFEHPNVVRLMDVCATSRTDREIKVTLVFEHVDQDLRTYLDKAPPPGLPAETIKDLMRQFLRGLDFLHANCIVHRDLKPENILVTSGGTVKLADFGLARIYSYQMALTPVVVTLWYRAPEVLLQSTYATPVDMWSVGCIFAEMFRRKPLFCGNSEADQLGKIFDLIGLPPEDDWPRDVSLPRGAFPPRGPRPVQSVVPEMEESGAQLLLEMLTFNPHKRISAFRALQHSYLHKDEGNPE
Sequence of Inhibitor of NF-kappa-B kinase (IKK) (O14920 whole entry): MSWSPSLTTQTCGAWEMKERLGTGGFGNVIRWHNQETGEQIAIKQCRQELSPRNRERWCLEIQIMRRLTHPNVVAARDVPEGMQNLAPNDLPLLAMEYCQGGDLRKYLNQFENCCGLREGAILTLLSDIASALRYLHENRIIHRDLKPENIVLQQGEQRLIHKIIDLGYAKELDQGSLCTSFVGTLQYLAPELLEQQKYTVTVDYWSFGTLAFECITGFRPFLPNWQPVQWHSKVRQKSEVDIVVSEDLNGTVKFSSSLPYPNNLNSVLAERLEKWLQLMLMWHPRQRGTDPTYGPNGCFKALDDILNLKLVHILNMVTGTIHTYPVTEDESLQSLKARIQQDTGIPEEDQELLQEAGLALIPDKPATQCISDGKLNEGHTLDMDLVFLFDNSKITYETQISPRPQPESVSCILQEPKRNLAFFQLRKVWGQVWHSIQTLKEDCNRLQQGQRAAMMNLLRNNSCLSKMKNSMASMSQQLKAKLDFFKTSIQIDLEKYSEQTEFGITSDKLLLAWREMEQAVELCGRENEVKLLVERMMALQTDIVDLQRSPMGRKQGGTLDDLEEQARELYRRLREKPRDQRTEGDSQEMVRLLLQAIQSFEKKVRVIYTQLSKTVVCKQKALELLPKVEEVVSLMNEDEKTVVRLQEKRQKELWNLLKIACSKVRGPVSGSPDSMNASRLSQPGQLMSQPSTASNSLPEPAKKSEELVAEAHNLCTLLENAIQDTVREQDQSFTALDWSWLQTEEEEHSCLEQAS
Sequence of Inhibitor of NF-kappa-B kinase (IKK) (O15111 whole entry): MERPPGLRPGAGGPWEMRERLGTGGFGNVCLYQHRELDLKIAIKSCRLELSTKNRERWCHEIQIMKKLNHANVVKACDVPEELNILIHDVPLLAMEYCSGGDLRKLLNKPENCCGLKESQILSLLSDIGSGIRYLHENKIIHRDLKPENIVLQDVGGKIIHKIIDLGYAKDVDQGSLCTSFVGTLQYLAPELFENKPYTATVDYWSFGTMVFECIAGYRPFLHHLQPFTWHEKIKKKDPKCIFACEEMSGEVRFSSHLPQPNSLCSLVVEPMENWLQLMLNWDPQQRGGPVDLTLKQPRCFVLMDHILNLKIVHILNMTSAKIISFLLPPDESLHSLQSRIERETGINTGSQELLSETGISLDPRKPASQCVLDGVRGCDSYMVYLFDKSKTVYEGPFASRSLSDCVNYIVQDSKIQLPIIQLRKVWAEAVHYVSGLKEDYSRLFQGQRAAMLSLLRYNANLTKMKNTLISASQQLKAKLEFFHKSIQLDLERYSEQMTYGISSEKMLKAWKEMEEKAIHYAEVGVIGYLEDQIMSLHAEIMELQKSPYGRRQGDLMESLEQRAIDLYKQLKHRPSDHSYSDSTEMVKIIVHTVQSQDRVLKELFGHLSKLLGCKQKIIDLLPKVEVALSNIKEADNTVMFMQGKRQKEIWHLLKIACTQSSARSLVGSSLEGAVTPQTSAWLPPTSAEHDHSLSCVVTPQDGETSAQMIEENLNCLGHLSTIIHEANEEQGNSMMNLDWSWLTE
Sequence of Inhibitor of NF-kappa-B kinase (IKK) (Q9Y6K9 whole entry): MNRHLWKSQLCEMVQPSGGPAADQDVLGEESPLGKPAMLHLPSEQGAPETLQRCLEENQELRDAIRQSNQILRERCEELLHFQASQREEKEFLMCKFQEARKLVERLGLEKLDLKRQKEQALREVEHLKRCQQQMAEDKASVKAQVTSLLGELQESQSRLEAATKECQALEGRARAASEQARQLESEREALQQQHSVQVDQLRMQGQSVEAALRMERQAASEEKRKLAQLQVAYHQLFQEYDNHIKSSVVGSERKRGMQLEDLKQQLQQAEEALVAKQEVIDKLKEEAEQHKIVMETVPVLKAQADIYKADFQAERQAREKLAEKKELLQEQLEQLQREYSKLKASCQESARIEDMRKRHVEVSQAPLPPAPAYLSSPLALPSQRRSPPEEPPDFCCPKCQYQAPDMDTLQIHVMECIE

Broadly, the pIC50 is −log10 of the IC50, conventionally taken in molar units. Low values mean a high IC50, high ones a low IC50. A word on the IC50: it is the point on the concentration scale where inhibition reaches its midpoint. A higher IC50 goes with a need for much substance. Consider `COc1cc(Nc2c(C#N)cnc3cc(-c4ccc(CN5CCN(C)CC5)cn4)sc23)c(Cl)cc1Cl`, for which the pIC50 in assay [1] is below 5.00; in assay [2], below 5.00; in assay [4] it was 7.89; in assay [6], below 5.00; in assay [7] it was 6.38. Besides, the IC50 was 1600 nM in assay [3] and above 10000 nM in assay [5].
